Reference: paper PMC6832266, “Natural Sesquiterpene Lactones of the 4,15-iso-Atriplicolide Type are Inhibitors of Trypanothione Reductase” (Molecules, 2019)

Key:
Assay type in all cases: biochemical
[1] = target: T1, trypanothione reductase (TbTR) (Trypanosoma brucei, UniProt P39051); assay: NADPH-consumption TR assay on recombinant enzyme; Lineweaver-Burk kinetics; dilution assay (irreversible, time-dependent)
T1 construct: gene TPR

[2] = target: T2, trypanothione reductase (TcTR) (Trypanosoma cruzi, UniProt P28593); assay: NADPH-consumption TR assay on recombinant enzyme, % inhibition at […] after […] min preincubation; details: read-out: TcTR / % Inhibition at c = 100 μM Preincubation Time (min)
T2 construct: gene TPR
T2 sequence (P28593 whole entry): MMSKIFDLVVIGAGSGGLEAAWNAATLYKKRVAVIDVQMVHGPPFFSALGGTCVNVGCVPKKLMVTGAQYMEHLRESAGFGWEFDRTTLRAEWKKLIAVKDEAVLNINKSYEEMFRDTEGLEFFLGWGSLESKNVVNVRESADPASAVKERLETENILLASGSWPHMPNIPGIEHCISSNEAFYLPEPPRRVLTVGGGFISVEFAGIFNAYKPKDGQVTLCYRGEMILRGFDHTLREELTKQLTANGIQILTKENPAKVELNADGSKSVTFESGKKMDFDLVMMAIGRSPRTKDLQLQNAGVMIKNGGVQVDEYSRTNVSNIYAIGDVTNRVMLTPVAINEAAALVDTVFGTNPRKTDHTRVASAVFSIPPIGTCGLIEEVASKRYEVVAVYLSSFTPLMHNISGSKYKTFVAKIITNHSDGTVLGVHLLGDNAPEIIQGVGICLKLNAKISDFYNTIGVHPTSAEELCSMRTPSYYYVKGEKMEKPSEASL

[3] = target: T1, trypanothione reductase (TbTR); assay: NADPH-consumption TR assay on recombinant enzyme, % inhibition at […] after […] min preincubation; dilution assay; details: read-out: TbTR / % Inhibition at c = 100 μM Preincubation Time (min)

T1 sequence (P39051 whole entry): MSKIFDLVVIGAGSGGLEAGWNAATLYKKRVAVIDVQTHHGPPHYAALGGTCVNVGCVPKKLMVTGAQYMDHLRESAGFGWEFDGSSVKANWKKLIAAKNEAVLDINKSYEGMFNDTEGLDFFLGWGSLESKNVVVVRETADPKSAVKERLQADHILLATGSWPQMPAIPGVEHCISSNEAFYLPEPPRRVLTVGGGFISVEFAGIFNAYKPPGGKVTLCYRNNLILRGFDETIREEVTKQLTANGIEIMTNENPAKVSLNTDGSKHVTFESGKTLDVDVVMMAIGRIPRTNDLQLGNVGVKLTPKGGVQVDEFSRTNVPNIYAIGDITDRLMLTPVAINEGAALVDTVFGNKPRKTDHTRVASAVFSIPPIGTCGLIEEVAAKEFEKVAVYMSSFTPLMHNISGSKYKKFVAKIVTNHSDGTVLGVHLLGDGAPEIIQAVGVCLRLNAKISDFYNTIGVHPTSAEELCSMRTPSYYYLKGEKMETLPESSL

Row | SMILES | Ki [1] [µM] | inhibition at 100 µM [2] [%] | inhibition at 100 µM [3] [%]
1 | C=C1C[C@H]2OC(=O)C(=C)[C@@H]2[C@H](OC(=O)/C(C)=C/C)C[C@@]2(C)OC1=CC2=O [compound 1, 4,15-iso-Atriplicolide tiglate] | 128 ± 8 | 89 ± 1 | 
2 | C=C(C)C(=O)O[C@@H]1C[C@@]2(C)OC(=CC2=O)C(=C)C[C@H]2OC(=O)C(=C)[C@H]12 [compound 2, 4,15-iso-atriplicolide methacrylate] |  | 41 ± 1 | 84
3 | C=C1C[C@H]2OC(=O)C(=C)[C@@H]2[C@H](OC(=O)C(C)C)C[C@@]2(C)OC1=CC2=O [compound 3, 4,15-iso-atriplicolide isobutyrate] |  | 80 | 79
